In the test the test system is HepG2 cells. Put plainly: In vitro toxicity, alamarBlue viability. The class given is cell-based, human. The note with it: Homo sapiens, HepG2, 24 h. The protocol:
The human hepatoblastoma HepG2 cell line (HB-8065; ATCC, Manassas, VA) was cultured in DMEM-GlutaMAX (5.5 mM glucose; Thermo Fisher) supplemented with 10% fetal bovine serum (Sigma-Aldrich), streptomycin (100 μg/ml; Gibco/Thermo Fisher), and penicillin (100 U/ml; Gibco/Thermo Fisher) at 37°C in 5% CO2. For viability assays, cells were seeded in white 96-well Nunclon plates (Sigma-Aldrich) at a density of 20,000 cells/well and left overnight to adhere. ZN148 and TPA (Sigma-Aldrich, Darmstadt, Germany) dissolved in dimethyl sulfoxide (DMSO; (Sigma-Aldrich) were added to the white 96-well plates containing 20,000 HepG2 cells/well at concentrations ranging from 1 to 1 × 10^−3 mM (a DMSO concentration kept below 1%), followed by incubation for 24 h at 37°C in 5% CO2. After 24 h, alamarBlue cell viability reagent (Thermo Fisher, Carlsbad, CA) was added (10% final concentration), followed by incubation for 4 h at 37°C. The proportion of viable cells in each well was measured in a fluorescence plate reader (Clariostar; BMGlabtech, Germany) at excitation 550 nm/emission 603 nm ([56]). Data from eight replicates were fitted by nonlinear regression to determine IC50 values using Prism (GraphPad Software, Inc.).
On the technique in general: The colour change of resazurin is a common sign of viable cells or microbes.

Molecules are shown by their SMILES.

As usually defined, the IC50 is the concentration that inhibits the measured activity by half. Read a high IC50 as weaker potency.

The molecule `CN(C[C@H](O)[C@@H](O)[C@H](O)[C@H](O)CO)C(=O)c1ccc(CN(Cc2ccccn2)Cc2ccccn2)nc1` [ZN148] came in with an IC50 above 100 µM.

The values are drawn from article PMC7269481, “ZN148 Is a Modular Synthetic Metallo-β-Lactamase Inhibitor That Reverses Carbapenem Resistance in Gram-Negative Pathogens In Vivo” (Antimicrobial Agents and Chemotherapy, 2020).
